# Laboratory results: the NIST ThermoML archive (doi:10.1016/j.jct.2005.07.011)
# Numbers after ± are expanded uncertainties.
# Assay: excess molar enthalpy (molar enthalpy of mixing); xn = mol fraction of the nth substance listed
# Details: Liquid, Flow calorimetry
compound,measurement,setting,value
COC(=O)OC [dimethyl carbonate] + CCCCO,excess molar enthalpy,"298.15 K, 1000 kPa, x1 = 0.05",0.127 ± 0.0043 kcal/mol
same,excess molar enthalpy,"298.15 K, 1000 kPa, x1 = 0.1",0.232 ± 0.0043 kcal/mol
same,excess molar enthalpy,"298.15 K, 1000 kPa, x1 = 0.15",0.317 ± 0.0043 kcal/mol
same,excess molar enthalpy,"298.15 K, 1000 kPa, x1 = 0.2",0.383 ± 0.00454 kcal/mol
same,excess molar enthalpy,"298.15 K, 1000 kPa, x1 = 0.25",0.435 ± 0.00454 kcal/mol
same,excess molar enthalpy,"298.15 K, 1000 kPa, x1 = 0.3",0.4733 ± 0.00454 kcal/mol
same,excess molar enthalpy,"298.15 K, 1000 kPa, x1 = 0.35",0.5011 ± 0.00478 kcal/mol
same,excess molar enthalpy,"298.15 K, 1000 kPa, x1 = 0.4",0.5163 ± 0.00478 kcal/mol
same,excess molar enthalpy,"298.15 K, 1000 kPa, x1 = 0.45",0.5253 ± 0.00454 kcal/mol
same,excess molar enthalpy,"298.15 K, 1000 kPa, x1 = 0.5",0.5258 ± 0.00454 kcal/mol
same,excess molar enthalpy,"298.15 K, 1000 kPa, x1 = 0.55",0.5155 ± 0.0043 kcal/mol
same,excess molar enthalpy,"298.15 K, 1000 kPa, x1 = 0.6",0.4945 ± 0.0043 kcal/mol
same,excess molar enthalpy,"298.15 K, 1000 kPa, x1 = 0.65",0.4683 ± 0.00406 kcal/mol
same,excess molar enthalpy,"298.15 K, 1000 kPa, x1 = 0.7",0.4353 ± 0.00359 kcal/mol
same,excess molar enthalpy,"298.15 K, 1000 kPa, x1 = 0.75",0.3916 ± 0.00335 kcal/mol
same,excess molar enthalpy,"298.15 K, 1000 kPa, x1 = 0.8",0.3364 ± 0.00287 kcal/mol
same,excess molar enthalpy,"298.15 K, 1000 kPa, x1 = 0.85",0.2695 ± 0.00229 kcal/mol
same,excess molar enthalpy,"298.15 K, 1000 kPa, x1 = 0.9",0.1907 ± 0.00167 kcal/mol
same,excess molar enthalpy,"298.15 K, 1000 kPa, x1 = 0.95",0.09904 ± 0.000956 kcal/mol
same,excess molar enthalpy,"313.15 K, 100 kPa, x1 = 0.049",0.125 ± 0.00454 kcal/mol
same,excess molar enthalpy,"313.15 K, 100 kPa, x1 = 0.099",0.235 ± 0.00454 kcal/mol
same,excess molar enthalpy,"313.15 K, 100 kPa, x1 = 0.149",0.329 ± 0.0043 kcal/mol
same,excess molar enthalpy,"313.15 K, 100 kPa, x1 = 0.199",0.404 ± 0.0043 kcal/mol
same,excess molar enthalpy,"313.15 K, 100 kPa, x1 = 0.25",0.4635 ± 0.0043 kcal/mol
same,excess molar enthalpy,"313.15 K, 100 kPa, x1 = 0.299",0.5061 ± 0.0043 kcal/mol
same,excess molar enthalpy,"313.15 K, 100 kPa, x1 = 0.351",0.5395 ± 0.00454 kcal/mol
same,excess molar enthalpy,"313.15 K, 100 kPa, x1 = 0.4",0.5598 ± 0.00454 kcal/mol
same,excess molar enthalpy,"313.15 K, 100 kPa, x1 = 0.449",0.5716 ± 0.00454 kcal/mol
same,excess molar enthalpy,"313.15 K, 100 kPa, x1 = 0.499",0.5732 ± 0.00454 kcal/mol
same,excess molar enthalpy,"313.15 K, 100 kPa, x1 = 0.549",0.5667 ± 0.00454 kcal/mol
same,excess molar enthalpy,"313.15 K, 100 kPa, x1 = 0.6",0.5459 ± 0.00454 kcal/mol
same,excess molar enthalpy,"313.15 K, 100 kPa, x1 = 0.651",0.5157 ± 0.0043 kcal/mol
same,excess molar enthalpy,"313.15 K, 100 kPa, x1 = 0.699",0.4762 ± 0.0043 kcal/mol
same,excess molar enthalpy,"313.15 K, 100 kPa, x1 = 0.751",0.427 ± 0.00406 kcal/mol
same,excess molar enthalpy,"313.15 K, 100 kPa, x1 = 0.8",0.368 ± 0.00406 kcal/mol
same,excess molar enthalpy,"313.15 K, 100 kPa, x1 = 0.85",0.299 ± 0.00406 kcal/mol
same,excess molar enthalpy,"313.15 K, 100 kPa, x1 = 0.899",0.204 ± 0.0043 kcal/mol
same,excess molar enthalpy,"313.15 K, 100 kPa, x1 = 0.949",0.108 ± 0.00406 kcal/mol
same,excess molar enthalpy,"313.15 K, 1000 kPa, x1 = 0.049",0.127 ± 0.00454 kcal/mol
same,excess molar enthalpy,"313.15 K, 1000 kPa, x1 = 0.099",0.238 ± 0.00454 kcal/mol
same,excess molar enthalpy,"313.15 K, 1000 kPa, x1 = 0.149",0.331 ± 0.0043 kcal/mol
same,excess molar enthalpy,"313.15 K, 1000 kPa, x1 = 0.199",0.406 ± 0.0043 kcal/mol
same,excess molar enthalpy,"313.15 K, 1000 kPa, x1 = 0.25",0.4659 ± 0.0043 kcal/mol
same,excess molar enthalpy,"313.15 K, 1000 kPa, x1 = 0.299",0.5082 ± 0.0043 kcal/mol
same,excess molar enthalpy,"313.15 K, 1000 kPa, x1 = 0.35",0.5426 ± 0.00454 kcal/mol
same,excess molar enthalpy,"313.15 K, 1000 kPa, x1 = 0.399",0.5625 ± 0.00454 kcal/mol
same,excess molar enthalpy,"313.15 K, 1000 kPa, x1 = 0.449",0.572 ± 0.00454 kcal/mol
same,excess molar enthalpy,"313.15 K, 1000 kPa, x1 = 0.499",0.5728 ± 0.00454 kcal/mol
same,excess molar enthalpy,"313.15 K, 1000 kPa, x1 = 0.549",0.5639 ± 0.00454 kcal/mol
same,excess molar enthalpy,"313.15 K, 1000 kPa, x1 = 0.6",0.5428 ± 0.00454 kcal/mol
same,excess molar enthalpy,"313.15 K, 1000 kPa, x1 = 0.651",0.5125 ± 0.0043 kcal/mol
same,excess molar enthalpy,"313.15 K, 1000 kPa, x1 = 0.699",0.4734 ± 0.0043 kcal/mol
same,excess molar enthalpy,"313.15 K, 1000 kPa, x1 = 0.751",0.4239 ± 0.00406 kcal/mol
same,excess molar enthalpy,"313.15 K, 1000 kPa, x1 = 0.8",0.368 ± 0.00406 kcal/mol
same,excess molar enthalpy,"313.15 K, 1000 kPa, x1 = 0.849",0.296 ± 0.00406 kcal/mol
same,excess molar enthalpy,"313.15 K, 1000 kPa, x1 = 0.899",0.206 ± 0.0043 kcal/mol
same,excess molar enthalpy,"313.15 K, 1000 kPa, x1 = 0.949",0.105 ± 0.00406 kcal/mol
same,excess molar enthalpy,"313.15 K, 10000 kPa, x1 = 0.049",0.124 ± 0.00454 kcal/mol
same,excess molar enthalpy,"313.15 K, 10000 kPa, x1 = 0.101",0.24 ± 0.00454 kcal/mol
same,excess molar enthalpy,"313.15 K, 10000 kPa, x1 = 0.151",0.332 ± 0.0043 kcal/mol
same,excess molar enthalpy,"313.15 K, 10000 kPa, x1 = 0.202",0.405 ± 0.0043 kcal/mol
same,excess molar enthalpy,"313.15 K, 10000 kPa, x1 = 0.249",0.4604 ± 0.0043 kcal/mol
same,excess molar enthalpy,"313.15 K, 10000 kPa, x1 = 0.3",0.5061 ± 0.0043 kcal/mol
same,excess molar enthalpy,"313.15 K, 10000 kPa, x1 = 0.349",0.5364 ± 0.00454 kcal/mol
same,excess molar enthalpy,"313.15 K, 10000 kPa, x1 = 0.401",0.5586 ± 0.00454 kcal/mol
same,excess molar enthalpy,"313.15 K, 10000 kPa, x1 = 0.451",0.5694 ± 0.00454 kcal/mol
same,excess molar enthalpy,"313.15 K, 10000 kPa, x1 = 0.501",0.5711 ± 0.00454 kcal/mol
same,excess molar enthalpy,"313.15 K, 10000 kPa, x1 = 0.551",0.5597 ± 0.00454 kcal/mol
same,excess molar enthalpy,"313.15 K, 10000 kPa, x1 = 0.602",0.5408 ± 0.00454 kcal/mol
same,excess molar enthalpy,"313.15 K, 10000 kPa, x1 = 0.65",0.513 ± 0.00454 kcal/mol
same,excess molar enthalpy,"313.15 K, 10000 kPa, x1 = 0.75",0.4247 ± 0.00406 kcal/mol
same,excess molar enthalpy,"313.15 K, 10000 kPa, x1 = 0.799",0.368 ± 0.00406 kcal/mol
same,excess molar enthalpy,"313.15 K, 10000 kPa, x1 = 0.849",0.293 ± 0.00406 kcal/mol
same,excess molar enthalpy,"313.15 K, 10000 kPa, x1 = 0.899",0.21 ± 0.0043 kcal/mol
same,excess molar enthalpy,"313.15 K, 10000 kPa, x1 = 0.949",0.105 ± 0.0043 kcal/mol
same,excess molar enthalpy,"328.15 K, 1000 kPa, x1 = 0.05",0.129 ± 0.00478 kcal/mol
same,excess molar enthalpy,"328.15 K, 1000 kPa, x1 = 0.1",0.243 ± 0.00478 kcal/mol
same,excess molar enthalpy,"328.15 K, 1000 kPa, x1 = 0.15",0.341 ± 0.00454 kcal/mol
same,excess molar enthalpy,"328.15 K, 1000 kPa, x1 = 0.2",0.418 ± 0.00478 kcal/mol
same,excess molar enthalpy,"328.15 K, 1000 kPa, x1 = 0.25",0.4826 ± 0.00478 kcal/mol
same,excess molar enthalpy,"328.15 K, 1000 kPa, x1 = 0.3",0.531 ± 0.00502 kcal/mol
same,excess molar enthalpy,"328.15 K, 1000 kPa, x1 = 0.35",0.5685 ± 0.00502 kcal/mol
same,excess molar enthalpy,"328.15 K, 1000 kPa, x1 = 0.4",0.5957 ± 0.00526 kcal/mol
same,excess molar enthalpy,"328.15 K, 1000 kPa, x1 = 0.45",0.6082 ± 0.00526 kcal/mol
same,excess molar enthalpy,"328.15 K, 1000 kPa, x1 = 0.5",0.6094 ± 0.00526 kcal/mol
same,excess molar enthalpy,"328.15 K, 1000 kPa, x1 = 0.55",0.602 ± 0.00502 kcal/mol
same,excess molar enthalpy,"328.15 K, 1000 kPa, x1 = 0.6",0.5832 ± 0.00478 kcal/mol
same,excess molar enthalpy,"328.15 K, 1000 kPa, x1 = 0.65",0.5542 ± 0.00454 kcal/mol
same,excess molar enthalpy,"328.15 K, 1000 kPa, x1 = 0.7",0.513 ± 0.0043 kcal/mol
same,excess molar enthalpy,"328.15 K, 1000 kPa, x1 = 0.75",0.4578 ± 0.00382 kcal/mol
same,excess molar enthalpy,"328.15 K, 1000 kPa, x1 = 0.8",0.3918 ± 0.00335 kcal/mol
same,excess molar enthalpy,"328.15 K, 1000 kPa, x1 = 0.85",0.3191 ± 0.00263 kcal/mol
same,excess molar enthalpy,"328.15 K, 1000 kPa, x1 = 0.9",0.2231 ± 0.00191 kcal/mol
same,excess molar enthalpy,"328.15 K, 1000 kPa, x1 = 0.95",0.114 ± 0.0011 kcal/mol
